Source: the supplement of paper PMC10307832

Key:
Assay in all cases: relative viability (nuclei count vs DMSO), 5 days (fraction); higher = more cells survive
Dovitinib + OSI-027 = compound: CN1CCN(c2ccc3nc(-c4c(N)c5c(F)cccc5[nH]c4=O)[nH]c3c2)CC1 [Dovitinib] + COc1cccc2cc(-c3nc([C@H]4CC[C@H](C(=O)O)CC4)n4ncnc(N)c34)[nH]c12 [OSI-027] (partner 0.5 µM)
Summary of the method: (§1)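 Values are medians from duplicate plates. Each reflects relative viability, defined as the nuclei count of treated wells over that of vehicle wells. Lung cancer cell lines in 1536-well plates were pin-tool dosed one day after seeding with one drug alone or with a fixed anchor-drug dose plus five library-drug doses (not always all listed) in √10 steps, then fixed, stained and imaged at 4× after 5 days.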

Dovitinib + Tozasertib = compound: CN1CCN(c2ccc3nc(-c4c(N)c5c(F)cccc5[nH]c4=O)[nH]c3c2)CC1 [Dovitinib] + Cc1cc(Nc2cc(N3CCN(C)CC3)nc(Sc3ccc(NC(=O)C4CC4)cc3)n2)n[nH]1 [Tozasertib] (partner 0.1 µM)
Summary of the method: as §1

Dovitinib + Crizotinib = compound: CN1CCN(c2ccc3nc(-c4c(N)c5c(F)cccc5[nH]c4=O)[nH]c3c2)CC1 [Dovitinib] + C[C@@H](Oc1cc(-c2cnn(C3CCNCC3)c2)cnc1N)c1c(Cl)ccc(F)c1Cl [Crizotinib] (partner 1 µM)
Summary of the method: as §1

Dovitinib + Linsitinib = compound: CN1CCN(c2ccc3nc(-c4c(N)c5c(F)cccc5[nH]c4=O)[nH]c3c2)CC1 [Dovitinib] + C[C@]1(O)C[C@@H](c2nc(-c3ccc4ccc(-c5ccccc5)nc4c3)c3c(N)nccn32)C1 [Linsitinib] (partner 1 µM)
Summary of the method: as §1

Cell Line	relative viability (Dovitinib + OSI-027; first compound 0.02 µM)	relative viability (Dovitinib + OSI-027; first compound 0.06325 µM)	relative viability (Dovitinib + OSI-027; first compound 0.2 µM)	relative viability (Dovitinib + OSI-027; first compound 0.6325 µM)	relative viability (Dovitinib + OSI-027; first compound 2 µM)	relative viability (Dovitinib + Tozasertib; first compound 0.02 µM)	relative viability (Dovitinib + Tozasertib; first compound 0.06325 µM)	relative viability (Dovitinib + Tozasertib; first compound 0.2 µM)	relative viability (Dovitinib + Tozasertib; first compound 0.6325 µM)	relative viability (Dovitinib + Tozasertib; first compound 2 µM)	relative viability (Dovitinib + Crizotinib; first compound 0.02 µM)	relative viability (Dovitinib + Crizotinib; first compound 0.06325 µM)	relative viability (Dovitinib + Crizotinib; first compound 0.2 µM)	relative viability (Dovitinib + Crizotinib; first compound 0.6325 µM)	relative viability (Dovitinib + Crizotinib; first compound 2 µM)	relative viability (Dovitinib + Linsitinib; first compound 0.02 µM)	relative viability (Dovitinib + Linsitinib; first compound 0.06325 µM)	relative viability (Dovitinib + Linsitinib; first compound 0.2 µM)	relative viability (Dovitinib + Linsitinib; first compound 0.6325 µM)	relative viability (Dovitinib + Linsitinib; first compound 2 µM)
NCI-H441	0.639	0.565	0.682	0.61	0.644	0.668	0.599	0.559	0.626	0.575	0.597	0.661	0.715	0.862	0.798	0.512	0.537	0.541	0.599	0.499
NCI-H1793	0.304	0.269	0.313	0.332	0.302	0.32	0.399	0.362	0.266	0.343						0.964	0.679	0.856	0.754	0.834
NCI-H23	0.486	0.599	0.665	0.605	0.534	0.293	0.475	0.581	0.354	0.358	0.539	0.531	0.526	0.421	0.554	0.546	0.664	0.623	0.57	0.506
HARA	0.628	0.438	0.456	0.538	0.474	0.117	0.11	0.107	0.102	0.112	1.07	1.08	0.985	1.1	1.07	1	0.943	0.924	0.968	0.859
NCI-H1792	0.79	0.641	0.762	0.755	0.61						0.998	0.977	0.997	1.04	0.971	0.621	0.44	0.602	0.598	0.522
NCI-H1703											0.651	0.836	0.779	0.547	0.31	0.853	0.868	0.671	0.533	0.403
NCI-H2342	0.634	0.579	0.603	0.685	0.722	0.602	0.631	0.488	0.488	0.504										
CAL-12T	0.839	0.768	0.913	0.569	0.742	0.28	0.3	0.341	0.262	0.285	0.532	0.628	0.654	0.635	0.661	0.839	0.894	0.756	0.784	0.82
NCI-H727	0.778	0.434	0.589	0.653	0.548	0.573	0.658	0.588	0.691	0.761	0.42	0.757	0.657	0.877	0.813	0.271	0.325	0.314	0.298	0.408
NCI-H2085	0.672	0.71	0.734	0.829	0.839	0.83	0.871	0.851	0.824	0.84	0.753	0.904	0.851	0.856	0.9	0.927	1.08	1.07	0.913	0.917
NCI-H1395	0.637	0.706	0.682	0.651	0.672	0.721	0.75	0.81	0.765	0.815						1.05	1.29	1.24	1.06	1.12
NCI-H1648	0.236	0.251	0.291	0.307	0.252	0.491	0.532	0.562	0.402	0.564										
NCI-H460	0.587	0.842	0.708	0.708	0.721	0.495	0.472	0.421	0.418	0.461	0.852	1.02	0.869	0.941	0.919	0.758	0.904	0.834	0.74	0.777
A549											0.702	0.763	0.741	0.694	0.733	0.654	0.573	0.651	0.586	0.632
IA-LM											0.678	0.838	0.73	0.722	0.682	0.602	0.544	0.627	0.614	0.547
EKVX	0.724	0.717	0.731	0.731	0.702	0.431	0.367	0.372	0.431	0.38	0.937	0.975	1.08	0.988	0.906	1.01	1.05	1	1.02	0.978
ChaGo-K-1	0.549	0.556	0.635	0.542	0.614	0.233	0.215	0.241	0.227	0.208	1.03	1.08	1.09	1.11	1.15					
NCI-H1755	0.744	0.732	0.759	0.714	0.712	0.53	0.62	0.554	0.561	0.555	0.861	0.878	0.834	0.852	0.86	0.968	0.976	0.94	1.01	0.998
NCI-H2228	0.638	0.533	0.512	0.681	0.635	0.249	0.281	0.207	0.216	0.265	0.399	0.379	0.436	0.454	0.367	0.789	0.632	0.669	0.967	0.633
